Marks after values point to notes of the source that are not given here. Where no end group is shown, it is not given here. [ ]: non-standard residue; d: D form. Cit = NC(=O)NCCC[C@H](N)C(=O)O
Legend:
Type in all cases: binding, human
[1] = test system: anti-citrullinated protein autoantibodies (ACPAs); assay: ELISA of citrullinated/native fibrin peptide pairs with serum mixtures A and B and control mixture (delta OD); details: mean of two determinations
Method: Each pair of peptides (citrullinated and noncitrullinated) was assayed by ELISA with a mixture, in equal parts, of 10 sera having no ACPAs (control mixture) and with the 2 mixtures A and B described in Example 1.
Each pair of peptides (native and citrullinated form) was tested on the same plate and a pair of control peptides—citrullinated “filaggrin” peptide cfc6 and its corresponding native peptide cf0 (Schellekens G A, 1998, mentioned above)—was included in each experiment, which made it possible to calculate an inter-assay coefficient of variation and to perform corrections.
All the incubations were carried out for 1 h at 4° C. and were followed by washing in PBS-0.1% Tween. The peroxidase activity was visualized with a solution of ortho-phenylenediamine (2 mg/ml—Sigma) in hydrogen peroxide (0.03%—Sigma). The reaction was stopped after 5 minutes by adding 4M sulfuric acid, and the optical density (OD) at 492 nm was measured by virtue of an automatic spectrophotometer (Multiskan, Thermo Labsystems).
The specific reactivity of the mixtures of sera with regard to the citrullinated peptides corresponded to the difference between the OD obtained with the citrullinated peptide and that obtained with the corresponding native peptide (delta OD). The results correspond to the mean of two determinations. Any citrullinated peptide making it possible to obtain a delta OD of greater than 0.250 for at least one of the two mixtures A and B after coating in at least one of the three buffers, was considered to be reactive.

[2] = test system: anti-citrullinated protein autoantibodies (ACPAs); assay: ELISA comparing amidated and nonamidated β60-74Cit60,72,74 with serum mixtures A and B; details: for delta OD: coating in PBS, versus noncitrullinated β60-74, mean of two experiments
From the text: ELISA plates were coated with the peptide β60-74Cit60,72,74, in which the C-terminal function of the carboxy-terminal citrullyl residue is not amidated (form carrying a terminal COOH function, hereinafter referred to as “nonamidated form”), with the peptide […], in which the C-terminal function of the carboxy-terminal citrullyl residue is amidated (form carrying a terminal CONH2 function, hereinafter referred to as “amidated form”) and the noncitrullinated peptide β60-74 (in which the C-terminal function of the carboxy-terminal arginyl residue is not amidated), all diluted in PBS. The serum mixtures A and B described in Example 1 were tested according to the method described in Example 2. As in Example 2, the specific reactivity of the peptide in nonamidated form or in amidated form corresponded to the difference between the OD obtained with these two citrullinated peptides and that obtained with the noncitrullinated peptide β60-74. […] The results correspond to the mean of two experiments, each comprising two determinations.

[3] = test system: anti-citrullinated protein autoantibodies (ACPAs); assay: ELISA of reactive citrullinated fibrin peptides with the 20 individual sera of mixtures A and B; details: for Number of positive sera: sera with delta OD not <0.25 out of sera tested (20, or 10 of mixture A only); for delta OD: best coating buffer per peptide
Method: The 14 peptides carrying the most reactive epitopes (delta OD≧0.5 for one or other of the mixtures of serum (A and B) with at least one of the three coating buffers) were tested independently with the 20 sera constituting the mixtures A and B, in order to evaluate the reactivity profile of each of these peptides. The tests were carried out by ELISA under the same conditions as in Example 2 above, with the exception that, for each pair of peptides, the coating buffer selected was that that had made it possible to obtain the strongest reactivity with respect to this peptide during the screening (the buffer for which the sum of the delta ODs obtained respectively for the serum mixtures A and B was at a maximum). […] Thus, for each serum, the dilution that made it possible to obtain an OD of 1 by ELISA on deiminated fibrinogen was selected (Nogueira L, 2002, mentioned above). The dilutions ranged from 1/20 to 1/2700.

[4] = Mixture A of sera 1/50, coating buffer PBS pH 7.4
[5] = Mixture A of sera 1/50, coating buffer acetate pH 5.0
[6] = Mixture A of sera 1/50, coating buffer carbonate pH 9.0
[7] = Mixture B of sera 1/50, coating buffer PBS pH 7.4
[8] = Mixture B of sera 1/50, coating buffer acetate pH 5.0
[9] = Mixture B of sera 1/50, coating buffer carbonate pH 9.0

Substance	delta OD (citrullinated minus native peptide, 492 nm) [1, 4]	delta OD (citrullinated minus native peptide, 492 nm) [1, 5]	delta OD (citrullinated minus native peptide, 492 nm) [1, 6]	delta OD (citrullinated minus native peptide, 492 nm) [1, 7]	delta OD (citrullinated minus native peptide, 492 nm) [1, 8]	delta OD (citrullinated minus native peptide, 492 nm) [1, 9]	Number of positive sera [3]	delta OD ([3]; serum 97.0311, dilution 1/200)	delta OD ([3]; serum 97.0459, dilution 1/60)	delta OD ([3]; serum 97.0506, dilution 1/75)	delta OD ([3]; serum 97.0794, dilution 1/50)	delta OD ([3]; serum 97.1474, dilution 1/20)	further results
β60-74Cit60,72,74: citrullinated synthetic peptide, fibrin β-chain residues 60-74, C-terminal citrullyl amidated; fits SEQ ID NO: 1 X1PAPPPISGGGYX2AX3 (XPAPPPISGGGYXAX; HELM PEPTIDE1{[Cit].P.A.P.P.P.I.S.G.G.G.Y.[Cit].A.[Cit].[am]}$$$$V2.0; N-terminus assumed; SMILES CC[C@H](C)[C@H](NC(=O)[C@@H]1CCCN1C(=O)[C@@H]1CCCN1C(=O)[C@@H]1CCCN1C(=O)[C@H](C)NC(=O)[C@@H]1CCCN1C(=O)[C@@H](N)CCCNC(N)=O)C(=O)N[C@@H](CO)C(=O)NCC(=O)NCC(=O)NCC(=O)N[C@@H](Cc1ccc(O)cc1)C(=O)N[C@@H](CCCNC(N)=O)C(=O)N[C@@H](C)C(=O)N[C@@H](CCCNC(N)=O)C(N)=O)	2.06	1.02	1.27	2.69	2.83	2.72	14/20	1.93	0.71^c	1.93	0.75	0.37	delta OD ([2]; Mixture A): 2.13; delta OD ([2]; Mixture B): 2.74; reactivity of amidated versus nonamidated form ([2]; serum mixtures A and B, PBS coating): clearly greater than that of the nonamidated form; delta OD ([3]; serum 95.0256, dilution 1/35): 3.48; delta OD ([3]; serum 97.0169, dilution 1/400): 0.31; delta OD ([3]; serum 97.0244, dilution 1/2700): 1.23; delta OD ([3]; serum 97.0323, dilution 1/120): 1.73; delta OD ([3]; serum 97.0468, dilution 1/700): 1.08; delta OD ([3]; serum 97.0796, dilution 1/500): 0.36; delta OD ([3]; serum 97.0907, dilution 1/300): 1.17; delta OD ([3]; serum 97.1210, dilution 1/300): 3.33; delta OD ([3]; serum 97.1548, dilution 1/60): 1.48
β60-74Cit60, 72, 74 nonamidated: citrullinated synthetic peptide, fibrin β-chain residues 60-74, C-terminal citrullyl not amidated (terminal COOH) (RPAPPPISGGGYRAR; HELM PEPTIDE1{[Cit].P.A.P.P.P.I.S.G.G.G.Y.[Cit].A.[Cit]}$$$$V2.0; N-terminus assumed; SMILES CC[C@H](C)[C@H](NC(=O)[C@@H]1CCCN1C(=O)[C@@H]1CCCN1C(=O)[C@@H]1CCCN1C(=O)[C@H](C)NC(=O)[C@@H]1CCCN1C(=O)[C@@H](N)CCCNC(N)=O)C(=O)N[C@@H](CO)C(=O)NCC(=O)NCC(=O)NCC(=O)N[C@@H](Cc1ccc(O)cc1)C(=O)N[C@@H](CCCNC(N)=O)C(=O)N[C@@H](C)C(=O)N[C@@H](CCCNC(N)=O)C(=O)O)													delta OD ([2]; Mixture A): 0.30; delta OD ([2]; Mixture B): 1.16
α501-515Cit510,512: citrullinated synthetic peptide, fibrin α-chain residues 501-515; fits SEQ ID NO: 3 SGIGTLDGFX1HX2HPD (SGIGTLDGF[Cit]H[Cit]HPD)	0.92	0.16	0.15	2.60	0.72	0.79	9/20			0.44	3.30		delta OD ([3]; serum 95.0256, dilution 1/35): 2.37; delta OD ([3]; serum 97.0323, dilution 1/120): 3.23; delta OD ([3]; serum 97.0388, dilution 1/50): 2.88; delta OD ([3]; serum 97.0524, dilution 1/200): 2.85; delta OD ([3]; serum 97.0530, dilution 1/50): 0.69; delta OD ([3]; serum 97.1436, dilution 1/150): 2.80; delta OD ([3]; serum 97.1715, dilution 1/300): 1.79
α561-575Cit573: citrullinated synthetic peptide, fibrin α-chain residues 561-575 (SSHHPGIAEFPS[Cit]GK)	0.30	0.05	0.01	0.52	0.14	0.17	5/20	0.30	0.38		1.95	0.71	delta OD ([3]; serum 97.1548, dilution 1/60): 0.53
α588-602Cit591: citrullinated synthetic peptide, fibrin α-chain residues 588-602 (second series) (SYN[Cit]GDSTFESKSYK)	0.16	0.05	0.36	0.33	0.06	0.67	2/20						delta OD ([3]; serum 97.0169, dilution 1/400): 1.34; delta OD ([3]; serum 97.1795, dilution 1/50): 0.79
α183-197Cit186,190: citrullinated synthetic peptide, fibrin α-chain residues 183-197 (second series) (SCS[Cit]ALA[Cit]EVDLKDY)	1.68	0.41	1.36	0.15	0.01	0.07	3/10	0.87	3.21	0.85			
α259-273Cit263,271: citrullinated synthetic peptide, fibrin α-chain residues 259-273 (second series) (MELE[Cit]PGGNEIT[Cit]GG)	0.60	0.14	0.12	0.69	0.21	0.20	13/20	0.29				0.39	delta OD ([3]; serum 97.0468, dilution 1/700): 0.32

Reference: US9249208B2, “Citrulline peptides derived from fibrin and recognized by rheumatoid arthritis specific autoantibodies, and the use thereof” (Biomerieux, priority 2004, dated 2016)
